Target: T1, Q46 protein aggregates (Homo sapiens, UniProt P42858, INS38QQQQQQQQQQQQQQQQQQQQQQQQQ)
T1 construct: 33 μM GST-Q46 was incubated with 150 μg/mL thrombin in assay buffer (150 mM NaCl, 50 mM Tris pH 8.0) and 2 mM CaCl2 for 16 hr at 37° C; fused on or other part: GST at the N-terminus
Assay: Q46 Radioligand Binding Assay (RBA)
Details: displacement of 10 nM [3H3]MK-3328 from 5 μM Q46 protein aggregates, 60 min at 37° C.
Procedure: Q46 Radioligand Binding Assay
For radioligand binding assays (RBA) GST-Q46 protein was generated based on a previous publication (Scherzinger et al. Cell, Vol. 90, 549-558, Aug. 8, 1997). For experiments 33 μM GST-Q46 was incubated with 150 μg/mL thrombin in assay buffer (150 mM NaCl, 50 mM Tris pH 8.0) and 2 mM CaCl2 for 16 hr at 37° C. Aggregated Q46 was pelleted by centrifugation for 5 min at 13,000 rpm in a bench top centrifuge and re-dissolved in the same volume of assay buffer. Test compounds were prepared by titration in DMSO at 11 concentrations from 33 μM to 1 nM. For the RBA, Q46 protein aggregates and test compounds were pre-incubated in assay buffer for 20 min at room temperature, in 140 μL/well in a 96-well plate (pp, round bottom). Then, ligand was added in 10 μL/well and incubated for 60 min at 37° C. Final assay concentrations were 1 μM to 30 pM test compound, 5 μM Q46 protein (equivalent monomer concentration) and 10 nM ligand [^3H3]MK-3328 (Harrision et al., ACS Med. Chem. Lett., 2 (2011), pp 498-502). Samples were transferred onto GF/B filter plates and washed 2× with 200 μL PBS using a Filtermate Harvester. After drying filter plates for 1 hr at 37° C., the back of the plates was sealed with foil and 30 μL/well scintillation fluid (Packard MicroScint 40) was added, incubated for incubated for 15 min in the dark and counted in a TopCount reader. […] IC50 values were determined with a sigmoidal inhibition model with four variables (top, bottom, slope, IC50) in a global fit using the normalized replicate data.

T1 sequence (P42858 with tags, fused parts or gaps with the stated changes): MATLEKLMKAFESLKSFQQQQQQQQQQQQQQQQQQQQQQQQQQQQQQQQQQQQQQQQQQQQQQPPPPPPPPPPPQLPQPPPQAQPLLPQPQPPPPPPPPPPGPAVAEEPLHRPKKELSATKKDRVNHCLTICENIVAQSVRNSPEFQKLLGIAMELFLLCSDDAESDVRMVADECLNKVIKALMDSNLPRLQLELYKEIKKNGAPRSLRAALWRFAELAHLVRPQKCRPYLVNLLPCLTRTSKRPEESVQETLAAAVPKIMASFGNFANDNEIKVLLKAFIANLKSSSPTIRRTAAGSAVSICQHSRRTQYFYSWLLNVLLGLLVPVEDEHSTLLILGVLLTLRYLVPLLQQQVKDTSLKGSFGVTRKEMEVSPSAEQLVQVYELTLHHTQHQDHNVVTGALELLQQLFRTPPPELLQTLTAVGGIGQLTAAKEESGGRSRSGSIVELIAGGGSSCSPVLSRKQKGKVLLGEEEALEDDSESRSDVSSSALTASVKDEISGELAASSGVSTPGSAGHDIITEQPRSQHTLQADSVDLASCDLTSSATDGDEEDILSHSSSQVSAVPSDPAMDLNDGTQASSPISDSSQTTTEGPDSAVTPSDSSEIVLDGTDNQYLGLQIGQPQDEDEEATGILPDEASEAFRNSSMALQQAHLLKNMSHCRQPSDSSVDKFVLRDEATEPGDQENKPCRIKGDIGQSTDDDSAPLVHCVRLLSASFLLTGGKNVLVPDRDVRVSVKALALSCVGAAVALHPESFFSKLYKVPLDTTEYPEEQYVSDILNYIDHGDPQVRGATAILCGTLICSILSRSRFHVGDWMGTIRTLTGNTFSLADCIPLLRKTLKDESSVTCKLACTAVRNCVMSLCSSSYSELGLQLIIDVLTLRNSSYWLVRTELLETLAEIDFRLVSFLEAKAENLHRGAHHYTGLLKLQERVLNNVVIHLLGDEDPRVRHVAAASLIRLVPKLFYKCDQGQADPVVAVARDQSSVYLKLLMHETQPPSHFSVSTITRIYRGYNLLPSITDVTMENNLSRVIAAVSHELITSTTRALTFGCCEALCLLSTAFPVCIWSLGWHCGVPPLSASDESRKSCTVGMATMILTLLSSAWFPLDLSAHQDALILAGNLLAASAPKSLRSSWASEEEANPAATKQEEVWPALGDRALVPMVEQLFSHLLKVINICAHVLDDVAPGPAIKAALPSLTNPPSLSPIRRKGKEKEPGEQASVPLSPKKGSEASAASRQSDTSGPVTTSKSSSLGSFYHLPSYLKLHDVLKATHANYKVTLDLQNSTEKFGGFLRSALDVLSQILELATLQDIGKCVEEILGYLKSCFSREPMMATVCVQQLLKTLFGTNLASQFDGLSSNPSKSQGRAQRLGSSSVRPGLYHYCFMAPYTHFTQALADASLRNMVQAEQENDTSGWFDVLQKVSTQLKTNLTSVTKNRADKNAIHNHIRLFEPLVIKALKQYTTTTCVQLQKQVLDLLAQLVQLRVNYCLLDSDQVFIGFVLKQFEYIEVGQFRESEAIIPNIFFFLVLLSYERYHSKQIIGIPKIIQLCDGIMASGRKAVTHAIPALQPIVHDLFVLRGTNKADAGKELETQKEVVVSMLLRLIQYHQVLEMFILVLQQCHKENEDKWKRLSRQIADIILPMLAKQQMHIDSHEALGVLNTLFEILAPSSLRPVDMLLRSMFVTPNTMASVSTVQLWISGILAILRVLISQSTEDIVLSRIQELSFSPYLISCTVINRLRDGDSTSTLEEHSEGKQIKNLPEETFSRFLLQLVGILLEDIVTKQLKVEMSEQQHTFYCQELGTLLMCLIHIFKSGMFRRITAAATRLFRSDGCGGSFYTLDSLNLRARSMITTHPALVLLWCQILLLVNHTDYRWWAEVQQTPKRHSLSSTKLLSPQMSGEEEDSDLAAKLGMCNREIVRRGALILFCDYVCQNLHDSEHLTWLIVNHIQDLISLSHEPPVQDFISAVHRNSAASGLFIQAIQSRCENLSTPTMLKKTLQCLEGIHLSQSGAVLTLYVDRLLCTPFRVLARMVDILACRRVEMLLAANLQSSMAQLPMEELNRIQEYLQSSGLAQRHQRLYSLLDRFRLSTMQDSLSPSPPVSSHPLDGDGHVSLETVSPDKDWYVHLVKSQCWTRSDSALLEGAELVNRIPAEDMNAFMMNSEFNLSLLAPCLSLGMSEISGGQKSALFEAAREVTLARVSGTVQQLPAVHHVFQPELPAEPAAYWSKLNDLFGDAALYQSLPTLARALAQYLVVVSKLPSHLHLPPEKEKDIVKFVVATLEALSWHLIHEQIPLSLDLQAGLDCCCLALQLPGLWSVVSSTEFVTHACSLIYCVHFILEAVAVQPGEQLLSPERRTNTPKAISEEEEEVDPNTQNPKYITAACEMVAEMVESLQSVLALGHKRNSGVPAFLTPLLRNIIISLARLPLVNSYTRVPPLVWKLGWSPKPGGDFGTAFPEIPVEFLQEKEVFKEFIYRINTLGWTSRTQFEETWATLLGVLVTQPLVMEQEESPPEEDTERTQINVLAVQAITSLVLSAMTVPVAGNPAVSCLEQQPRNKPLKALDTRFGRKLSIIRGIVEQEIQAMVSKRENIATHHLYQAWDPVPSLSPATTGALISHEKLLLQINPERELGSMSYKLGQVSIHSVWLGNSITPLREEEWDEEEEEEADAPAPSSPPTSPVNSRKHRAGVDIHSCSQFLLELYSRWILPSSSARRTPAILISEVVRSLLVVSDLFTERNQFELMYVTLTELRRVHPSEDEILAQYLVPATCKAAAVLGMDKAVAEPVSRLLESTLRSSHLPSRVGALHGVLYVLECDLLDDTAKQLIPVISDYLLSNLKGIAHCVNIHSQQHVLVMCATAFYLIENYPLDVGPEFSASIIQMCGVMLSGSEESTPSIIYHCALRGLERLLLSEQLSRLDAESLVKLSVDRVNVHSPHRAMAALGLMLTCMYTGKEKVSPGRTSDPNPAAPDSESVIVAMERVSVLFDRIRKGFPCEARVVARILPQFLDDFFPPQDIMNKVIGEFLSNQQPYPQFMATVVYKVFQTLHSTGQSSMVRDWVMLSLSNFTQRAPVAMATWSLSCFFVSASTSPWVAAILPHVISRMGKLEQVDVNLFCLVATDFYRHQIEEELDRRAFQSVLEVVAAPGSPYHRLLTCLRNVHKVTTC

Compound | IC50 [nM]
COc1ccc2nc(-c3ccccc3OC)sc2c1 [6-methoxy-2-(2-methoxyphenyl)-1,3-benzothiazole] | 100 to 500
COc1ccc2nc(-c3cccnc3)oc2c1 [6-methoxy-2-(pyridin-3-yl)-1,3-benzoxazole] | 100 to 500
COc1ccc2nc(-c3ccncc3-c3ccn[nH]3)sc2c1 [6-methoxy-2-[3-(1H-pyrazol-5-yl)pyridin-4-yl]-1,3-benzothiazole] | 100 to 500
OCc1ccc2oc(-c3cccnc3)nc2c1 [[2-(pyridin-3-yl)-1,3-benzoxazol-5-yl]methanol] | > 500

Next, values leading:

IC50 [nM] | Compound
< 100 | COc1ccc2oc(-c3ccncc3)c(C#N)c2c1 [5-methoxy-2-(pyridin-4-yl)-1-benzofuran-3-carbonitrile]
< 100 | COc1ccc2oc(-c3ccc(C#N)cn3)cc2c1 [6-(5-methoxy-1-benzofuran-2-yl)pyridine-3-carbonitrile]
< 100 | COc1ccc2oc(-c3cccc4cn[nH]c34)cc2c1 [7-(5-methoxy-1-benzofuran-2-yl)-1H-indazole]
< 100 | COc1ccc2nc(-c3ccncc3NC(C)=O)sc2c1 [N-[4-(6-methoxy-1,3-benzothiazol-2-yl)pyridin-3-yl]acetamide]
< 100 | COc1ccc2oc(-c3cccc(NC(C)=O)n3)cc2c1 [N-[6-(5-methoxy-1-benzofuran-2-yl)pyridin-2-yl]acetamide]

System: recombinant tau and amyloid β1-42 (Aβ1-42) aggregates
Assay: not given
Details: higher affinity for the tau aggregates than Aβ1-42 aggregates; cited from earlier work

Compound | ratio of Kd values
CN(C)c1ccc(/C=C/c2nc3ccc(I)cc3[nH]2)cc1 [SBIM-3, 4-[(E)-2-(6-iodo-1H-benzimidazol-2-yl)ethenyl]-N,N-dimethylaniline] | 2.73

System: NFT in sections of AD brain tissue
Assay: not given
Details: cited from earlier work

Compound | binding to NFT
CN(C)c1ccc(/C=C/c2nc3ccc(I)cc3[nH]2)cc1 [SBIM-3, 4-[(E)-2-(6-iodo-1H-benzimidazol-2-yl)ethenyl]-N,N-dimethylaniline] | bound NFT in sections of AD brain tissue
